In patent US20200163984A1, “USE OF ISOVALERYL SPIRAMYCIN I, II AND/OR III IN MANUFACTURING MEDICAMENT FOR TREATING AND/OR PREVENTING TUMOR, AND MEDICAMENT” (SHENYANG FUYANG PHARMACEUTICAL TECHNOLOGY CO., LTD., priority 2017, published 2020):

Experiments:
[1] = test system: transplanted tumor of human breast cancer cell MCF-7; assay: MCF-7 transplanted tumor in nude mice
Description: (§1) Then cell concentration was adjusted to 1×10^7/ml with matrigel, then each nude mouse was inoculated subcutaneously with 0.2 ml of cells at its right armpit and recorded as the first day of inoculation. When the tumor grows to be greater than or equal to 100 mm^3, the mice were randomly divided into 11 groups with 6 mice in each group: a model group, a cyclophosphamide group, isovaleryl spiramycin I groups with doses of 25, 50 and 100 mg/kg, isovaleryl spiramycin II groups with doses of 25, 50 and 100 mg/kg, and isovaleryl spiramycin III groups with doses of 25, 50 and 100 mg/kg. Each group was continuously administered intragastrically for 30 days with a dose of 20 ml/kg. The mice were sacrificed the next day after drug withdrawal and the indicators were tested. The long diameter and short diameter of the tumor, and the body weight of each mouse were recorded every 3 days from drug administration to nude mouse sacrifice.
(§2) The body weight of the nude mice and the long diameter (a) and short diameter (b) of the transplanted tumor were measured every 3 days, and the tumor volume (v), relative tumor volume (RTV) and relative tumor proliferation rate (T/C) are calculated respectively according to the following formulas, wherein V=a×b^2/2; RTV=V/V0 (V0 is the tumor volume before administration, V is the tumor volume before sacrifice), and T/C (%)=treatment group RTV/model control group RTV×100%.
(§3) Each mouse was weighed and sacrificed. After the tumor was completely stripped off from the body of the mouse, the non-tumor tissues such as blood stains and fat were removed to weigh the tumor and calculate the tumor growth inhibition rate. The average tumor weight of each group of mice is used as an indicator of efficacy. Tumor growth inhibition rate (%)=(1−the average tumor weight of the treatment group/the average tumor weight of the model group)×100%.

[2] = test system: transplanted tumor of human cervical cancer cell HeLa; assay: HeLa transplanted tumor in nude mice; conditions: for Tumor Volume (mm3) (d 1): d1
Description: as §1, with “HeLa cells in a logarithmic growth phase were taken and subjected to a trypan blue exclusion experiment showing that the cell viability was more than 95%, then the cells were subjected to trypsinization, centrifugation, and supernatant removal. Then” for “Then”
as §2, §3

[3] = test system: transplanted tumor of human renal clear cell adenocarcinoma cell 786-O; assay: 786-O transplanted tumor in nude mice; conditions: for Tumor Volume (mm3) (d 1): d1
Description: as §1, with “786-O cells in a logarithmic growth phase were taken and subjected to a trypan blue exclusion experiment showing that the cell viability was more than 95%, then the cells were subjected to trypsinization, centrifugation, and supernatant removal. Then” for “Then”
as §2, §3

[4] = MCF-7, 25 mg/kg (low dose) i.g. 30 days
[5] = MCF-7, 50 mg/kg (medium dose) i.g. 30 days
[6] = MCF-7, 100 mg/kg (high dose) i.g. 30 days
[7] = HeLa, high dose (100 mg/kg in method) i.g. 30 days
[8] = HeLa, low dose (25 mg/kg in method) i.g. 30 days
[9] = HeLa, medium dose (50 mg/kg in method) i.g. 30 days
[10] = 786-O, high dose (100 mg/kg in method) i.g. 30 days
[11] = 786-O, low dose (25 mg/kg in method) i.g. 30 days
[12] = 786-O, medium dose (50 mg/kg in method) i.g. 30 days

COC1C(OC(C)=O)CC(=O)OC(C)CC=CC=CC(OC2CCC(N(C)C)C(C)O2)C(C)CC(CC=O)C1OC1OC(C)C(OC2CC(C)(O)C(OC(=O)CC(C)C)C(C)O2)C(N(C)C)C1O (stereo not shown) [Isovaleryl spiramycin II, isovaleryl spiramycin II]
Inhibition Rate (tumor growth inhibition rate) [1, 4]: 20.55% | Relative Tumor Proliferation Rate (T/C) [1, 4]: 79.23% | Relative Tumor Volume (RTV) [1, 4]: 13.87 ± 1.53 | Tumor Volume (d 1) [1, 4]: 104.64 ± 10.69 mm3 | Tumor Volume (d 30) [1, 4]: 1450.36 ± 218.20 mm3 | Tumor Weight [1, 4]: 2.16 ± 0.51 g | Inhibition Rate (tumor growth inhibition rate) [1, 5]: 41.72% | Relative Tumor Proliferation Rate (T/C) [1, 5]: 60.58% | Relative Tumor Volume (RTV) [1, 5]: 10.60 ± 1.10 | Tumor Volume (d 1) [1, 5]: 105.81 ± 11.20 mm3 | Tumor Volume (d 30) [1, 5]: 1113.42 ± 71.14 mm3 | Tumor Weight [1, 5]: 1.58 ± 0.51 g | Inhibition Rate (tumor growth inhibition rate) [1, 6]: 56.81% | Relative Tumor Proliferation Rate (T/C) [1, 6]: 44.45% | Relative Tumor Volume (RTV) [1, 6]: 7.78 ± 1.71 | Tumor Volume (d 1) [1, 6]: 119.69 ± 14.63 mm3 | Tumor Volume (d 30) [1, 6]: 914.69 ± 130.26 mm3 | Tumor Weight [1, 6]: 1.17 ± 0.47 g | Relative Tumor Proliferation Rate (T/C) ([1]; MCF-7, 100 mg/kg (high dose) i.g. 30 days, listed as isovaleryl spiramycin II): 44.44% | tumor volume and relative tumor volume compared with the model group ([1]; MCF-7, low, medium and high doses, P<0.05): significantly lower | mouse weight compared with the model group ([1]; mouse, in vivo): no significant changes | Inhibition Rate (%) ([2]; HeLa nude mice, 12.5 mg/kg): 30.67% | Relative Tumor Proliferation Rate (T/C) ([2]; HeLa nude mice, 12.5 mg/kg): 68.55% | Relative Tumor Volume (RTV) ([2]; HeLa nude mice, 12.5 mg/kg): 11.36 ± 2.90 | Tumor Weight ([2]; HeLa nude mice, 12.5 mg/kg): 1.34 ± 0.60 g | Tumor Volume (mm3) (d 1) ([2]; HeLa nude mice, 12.5 mg/kg): 115.41 ± 23.27 mm3 | Tumor Volume (mm3) (d30) ([2]; HeLa nude mice, 12.5 mg/kg): 1301.28 ± 391.77 mm3 | Inhibition Rate (%) ([2]; HeLa nude mice, 25 mg/kg): 42.90% | Relative Tumor Proliferation Rate (T/C) ([2]; HeLa nude mice, 25 mg/kg): 56.07% | Relative Tumor Volume (RTV) ([2]; HeLa nude mice, 25 mg/kg): 9.30 ± 1.74 | Tumor Weight ([2]; HeLa nude mice, 25 mg/kg): 1.10 ± 0.62 g | Tumor Volume (mm3) (d 1) ([2]; HeLa nude mice, 25 mg/kg): 125.04 ± 20.71 mm3 | Tumor Volume (mm3) (d30) ([2]; HeLa nude mice, 25 mg/kg): 1184.42 ± 369.49 mm3 | Inhibition Rate (%) ([2]; HeLa nude mice, 50 mg/kg): 43.30% | Relative Tumor Proliferation Rate (T/C) ([2]; HeLa nude mice, 50 mg/kg): 45.96% | Relative Tumor Volume (RTV) ([2]; HeLa nude mice, 50 mg/kg): 7.62 ± 0.85 | Tumor Weight ([2]; HeLa nude mice, 50 mg/kg): 1.10 ± 0.61 g | Tumor Volume (mm3) (d 1) ([2]; HeLa nude mice, 50 mg/kg): 111.84 ± 4.83 mm3 | Tumor Volume (mm3) (d30) ([2]; HeLa nude mice, 50 mg/kg): 851.58 ± 93.66 mm3 | Relative Tumor Proliferation Rate (T/C) [2, 7]: 43.30% | tumor growth inhibition rate [2, 7]: 43.30% | Relative Tumor Proliferation Rate (T/C) [2, 8]: 30.67% | tumor growth inhibition rate [2, 8]: 30.67% | tumor volume and relative tumor volume compared with the model group ([2]; HeLa, low, medium and high doses, P<0.05): significantly lower | Relative Tumor Proliferation Rate (T/C) [2, 9]: 42.90% | tumor growth inhibition rate [2, 9]: 42.90% | mouse weight compared with the model group ([2]; mouse, in vivo): no significant changes | Body Weight (g) (d1) ([2]; mouse, in vivo, 12.5 mg/kg): 20.92 ± 0.46 g | Body Weight (g) (d30) ([2]; mouse, in vivo, 12.5 mg/kg): 21.16 ± 0.51 g | Body Weight (g) (d1) ([2]; mouse, in vivo, 25 mg/kg): 20.87 ± 0.34 g | Body Weight (g) (d30) ([2]; mouse, in vivo, 25 mg/kg): 21.25 ± 0.55 g | Body Weight (g) (d1) ([2]; mouse, in vivo, 50 mg/kg): 20.77 ± 0.43 g | Body Weight (g) (d30) ([2]; mouse, in vivo, 50 mg/kg): 21.09 ± 0.36 g | Inhibition Rate (%) ([3]; 786-O nude mice, 25 mg/kg): 19.69% | Relative Tumor Proliferation Rate (T/C) ([3]; 786-O nude mice, 25 mg/kg): 76.92% | Relative Tumor Volume (RTV) ([3]; 786-O nude mice, 25 mg/kg): 14.62 ± 1.93 | Tumor Weight ([3]; 786-O nude mice, 25 mg/kg): 1.72 ± 0.27 g | Tumor Volume (mm3) (d 1) ([3]; 786-O nude mice, 25 mg/kg): 96.82 ± 8.52 mm3 | Tumor Volume (mm3) (d30) ([3]; 786-O nude mice, 25 mg/kg): 1415.80 ± 201.11 mm3 | Inhibition Rate (%) ([3]; 786-O nude mice, 50 mg/kg): 41.09% | Relative Tumor Proliferation Rate (T/C) ([3]; 786-O nude mice, 50 mg/kg): 53.61% | Relative Tumor Volume (RTV) ([3]; 786-O nude mice, 50 mg/kg): 10.19 ± 2.62 | Tumor Weight ([3]; 786-O nude mice, 50 mg/kg): 1.26 ± 0.31 g | Tumor Volume (mm3) (d 1) ([3]; 786-O nude mice, 50 mg/kg): 96.82 ± 8.52 mm3 | Tumor Volume (mm3) (d30) ([3]; 786-O nude mice, 50 mg/kg): 982.68 ± 265.02 mm3 | Inhibition Rate (%) ([3]; 786-O nude mice, 100 mg/kg): 60.00% | Relative Tumor Proliferation Rate (T/C) ([3]; 786-O nude mice, 100 mg/kg): 35.74% | Relative Tumor Volume (RTV) ([3]; 786-O nude mice, 100 mg/kg): 6.79 ± 1.65 | Tumor Weight ([3]; 786-O nude mice, 100 mg/kg): 0.85 ± 0.16 g | Tumor Volume (mm3) (d 1) ([3]; 786-O nude mice, 100 mg/kg): 103.26 ± 9.71 mm3 | Tumor Volume (mm3) (d30) ([3]; 786-O nude mice, 100 mg/kg): 701.57 ± 127.91 mm3 | Relative Tumor Proliferation Rate (T/C) [3, 10]: 35.74% | tumor growth inhibition rate [3, 10]: 60.00% | Relative Tumor Proliferation Rate (T/C) [3, 11]: 76.92% | tumor growth inhibition rate [3, 11]: 19.69% | tumor volume and relative tumor volume compared with the model group ([3]; 786-O, low, medium and high doses, P<0.05): significantly lower | Relative Tumor Proliferation Rate (T/C) [3, 12]: 53.61% | tumor growth inhibition rate [3, 12]: 41.09% | mouse weight compared with the model group ([3]; mouse, in vivo): no significant changes | Body Weight (g) (d1) ([3]; mouse, in vivo, 25 mg/kg): 22.05 ± 0.71 g | Body Weight (g) (d30) ([3]; mouse, in vivo, 25 mg/kg): 23.33 ± 0.54 g | Body Weight (g) (d1) ([3]; mouse, in vivo, 50 mg/kg): 22.42 ± 0.54 g | Body Weight (g) (d30) ([3]; mouse, in vivo, 50 mg/kg): 23.42 ± 0.50 g | Body Weight (g) (d1) ([3]; mouse, in vivo, 100 mg/kg): 22.33 ± 0.41 g | Body Weight (g) (d30) ([3]; mouse, in vivo, 100 mg/kg): 23.45 ± 0.91 g
